Measurements: US6645984B2, “Arylisoxazoline derivatives, processes for their preparation and their use as pesticides” (Aventis CropScience GmbH, priority 2001, dated 2003)

Test system: Spodoptera litoralis
Test: whole plant or invertebrate
Type: in vivo
Details: 96 h, read-out: larvae mortality
Experimental: Nutrient medium (freeze-dried cube) is dipped into an aqueous solution of the formulated preparation to be examined and then placed into a Petri dish. Ten L2 larvae of the Egyptian cotton leaf worm (Spodoptera litoralis) are then added. The Petri dish is then closed with a lid. The effect of the preparation on the larvae is determined after 4 days of storage at about 23° C. At a concentration of 500 ppm (based on the content of active compound), the preparations of Example Nos. 5, 9, 12, 28, 29, 30, 35, 39, 40, 41, 42, 43, 45, 46, 48, 52, 63, 87, 90, 91, 92, 94, 97, 98, 99, 100, 103, 107, 113, 117, 120, 125, 566, 567, 573, 574, 589, 600, 613, 614, 619, 626 effect a larvae mortality of 80-100%.

## CC1=NOC(c2ccc(C3COC(c4c(F)cccc4F)=N3)cc2)C1 (stereo not shown) [Example 566, 2-(2,6-Difluorophenyl)-4-(4-(3-methylisoxazolin-5-yl)phenyl)oxazoline]
  mortality at 500 ppm: 80 to 100%
